We go through four compounds from US12252524B2, “GIP/GLP1 co-agonist compounds” (Eli Lilly and Company, priority 2018, dated 2025).

In experiment [1] the target is T1, gastric inhibitory peptide receptor (GIPR) (Homo sapiens, UniProt P48546).
T1 sequence (P48546 22-466): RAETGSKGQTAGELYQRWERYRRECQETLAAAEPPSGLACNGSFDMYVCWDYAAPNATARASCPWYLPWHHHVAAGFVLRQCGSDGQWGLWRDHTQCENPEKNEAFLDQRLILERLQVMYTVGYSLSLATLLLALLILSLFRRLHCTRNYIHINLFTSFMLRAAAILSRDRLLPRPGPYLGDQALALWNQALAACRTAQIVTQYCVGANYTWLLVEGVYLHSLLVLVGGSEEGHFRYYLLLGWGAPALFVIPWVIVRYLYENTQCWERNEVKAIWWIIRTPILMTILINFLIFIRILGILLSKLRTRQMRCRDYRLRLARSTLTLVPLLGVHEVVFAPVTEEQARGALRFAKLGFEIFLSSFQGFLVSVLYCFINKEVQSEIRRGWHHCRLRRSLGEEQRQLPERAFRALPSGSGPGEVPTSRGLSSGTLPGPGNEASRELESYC
In words: cAMP pharmacological functional assay in presence of casein, hGIPR. It counts as cell-based. As to conditions: HEK293 cells expressing hGIPR, 0.1% Casein, geometric mean; read-out: hGIPR cAMP Rel EC50 nM (SEM, n).

Experiment [2] concerns the target T2, human GLP-1R (Homo sapiens, UniProt P43220). Put plainly: [125I]-GLP-1 binding (SPA), human GLP-1 receptor. The arrangement: expressed in transfected cells; crude membranes. As to conditions: read-out: hGLP1R Ki, (nM) (SEM, n). An outline of the steps:
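Membranes: hypotonic lysis (50 mM Tris HCl, pH 7.5, protease inhibitors), Potter-Elvehjem homogenization, high-speed pellet (35000×g 1 h or 25000×g 30 min, 4° C.). Buffer: 25 mM HEPES pH 7.4, 2.5 mM CaCl2, 1 mM MgCl2. Four-parameter IC50 fit; Ki as geometric mean ± SEM.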

For experiment [3], the target named is human GLP-1 receptor (GLP-1R) (Homo sapiens, UniProt P43220). In words: cAMP pharmacological functional assay in presence of casein, hGLP-1R. As to conditions: HEK293 cells expressing hGLP-1R, 0.1% Casein, geometric mean; read-out: hGLP1R cAMP Rel EC50 nM (SEM, n). The format is cell-based.
human GLP-1 receptor (GLP-1R), sequence (P43220 24-463): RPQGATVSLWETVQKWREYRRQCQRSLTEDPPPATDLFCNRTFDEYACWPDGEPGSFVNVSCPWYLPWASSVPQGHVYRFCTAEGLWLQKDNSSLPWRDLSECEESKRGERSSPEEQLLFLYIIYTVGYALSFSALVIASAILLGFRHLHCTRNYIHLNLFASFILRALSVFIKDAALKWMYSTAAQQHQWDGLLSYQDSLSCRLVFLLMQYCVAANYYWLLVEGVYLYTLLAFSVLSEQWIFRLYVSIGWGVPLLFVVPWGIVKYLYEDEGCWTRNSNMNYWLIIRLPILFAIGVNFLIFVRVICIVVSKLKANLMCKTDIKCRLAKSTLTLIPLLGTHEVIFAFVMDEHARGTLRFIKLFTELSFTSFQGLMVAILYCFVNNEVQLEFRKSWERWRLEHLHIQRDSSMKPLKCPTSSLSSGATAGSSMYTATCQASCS
In another experiment the target is T3, human GIP receptor (Homo sapiens, UniProt P48546).
T3 construct: expressed in transfected cells; crude membranes
T3 sequence (P48546 22-466): T1 sequence (P48546 22-466)
Put plainly: [125I]-GIP binding (SPA), human GIP receptor. As to conditions: read-out: hGIPR Ki, nM (SEM, n).

The next experiment deals with T4, human Gcg receptor (Homo sapiens, UniProt P47871).
T4 construct: expressed in transfected cells; crude membranes
T4 sequence (P47871 26-477): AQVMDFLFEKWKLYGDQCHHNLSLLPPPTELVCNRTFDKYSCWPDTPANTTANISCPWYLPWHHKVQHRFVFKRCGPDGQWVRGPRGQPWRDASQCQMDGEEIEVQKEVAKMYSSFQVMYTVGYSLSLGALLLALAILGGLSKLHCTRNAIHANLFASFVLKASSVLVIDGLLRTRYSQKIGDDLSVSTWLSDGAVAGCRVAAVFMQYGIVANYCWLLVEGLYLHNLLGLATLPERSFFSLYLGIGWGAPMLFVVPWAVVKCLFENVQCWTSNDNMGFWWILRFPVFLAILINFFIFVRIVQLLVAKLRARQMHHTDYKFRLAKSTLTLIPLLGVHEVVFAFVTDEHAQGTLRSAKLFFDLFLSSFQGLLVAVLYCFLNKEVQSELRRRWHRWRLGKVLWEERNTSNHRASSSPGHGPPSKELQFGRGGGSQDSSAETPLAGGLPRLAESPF
In words: [125I]-Glucagon binding (SPA), human Gcg receptor. As to conditions: read-out: hGLcgR Ki, nM (SEM, n). In short, it runs like this: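 Crude membranes from cells expressing the receptor, prepared by hypotonic lysis in 50 mM Tris HCl pH 7.5 with protease inhibitors, homogenization and differential centrifugation, were used in a WGA-bead SPA. Binding buffer: 25 mM HEPES pH 7.4, 2.5 mM CaCl2, 1 mM MgCl2, bacitracin, Tween-20.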

Experiment [4] deals with T2, human GLP-1R. Put plainly: GLP-1R HEK293 cell membrane [35S]GTPγS binding assay. It counts as biochemical. The arrangement: expressed in transfected cells; host or cells: HEK293 cells expressing human GLP-1R; membranes. As to conditions: HEK293 cell membranes expressing human GLP-1R, [35S]GTPγS binding; read-out: hGLP1R GTPgS Rel EC50 nM (SEM, n). As for the experimental part:
The GLP-1 receptor is a G-protein coupled receptor that increases GTP-bound Gas upon ligand induced receptor activation. The potency of peptides to stimulate-GLP-1R induced activation of Gac is determined using preparations of purified membranes from HEK293 cells expressing the human GLP-1R. […] The test peptides are solubilized in DMSO and diluted in reaction buffer containing 5 μg of membrane in 20 mM HEPES pH 7.4, 50 mM NaCl, 5 mM MgCl2, 40 μg/ml saponin, 0.1% BSA, and […] ^35S-labeled GTPTS for 30 minutes at room temperature. Reactions are terminated by addition of 0.2% Nonidet β-40 detergent containing rabbit anti-Gas polyclonal antibody and 0.5 mg of anti-rabbit polyvinyltoluene beads. Mixtures are developed for 30 minutes, centrifuged at 80×g for 10 minutes, and counted for 1 minute/well using a MicroBeta TriLux instrument. Peptide concentration-response curves are fit to a four-parameter logistic model to calculate potency as an EC50.
On the technique in general: GTPγS is a poorly hydrolysed GTP analogue; its binding reports G protein activation.

As a reminder, the EC50 is the midpoint of the concentration-response curve. A word on the Ki: it is the equilibrium dissociation constant of an inhibitor or competing ligand from its target.

Numbered stars: 1 amine (or outer) side, 2 acyl side, 3 side chain; on linkers, the order of the positions; unused ones are H or OH. Square brackets hold non-standard residues; d marks the D form. Side chains are listed from the residue outwards. Peptide text beside a SMILES is read from it. * marks the point of attachment. C20 diacid = O=C(O)CCCCCCCCCCCCCCCCCCC(=O)*; C18 diacid = O=C(O)CCCCCCCCCCCCCCCCC(=O)*; γGlu = O=C(O)[C@H](CCC(=O)[*:2])N[*:1]; αMeL = CC(C)C[C@](C)(N)C(=O)O; AEEA = NCCOCCOCC(=O)O; Aib = CC(C)(N)C(=O)O Bounds are passed on as bounds.

T2 sequence (P43220 24-463): as the sequence (P43220 24-463) above

For `CC[C@H](C)[C@H](NC(=O)[C@H](CC(C)C)NC(=O)[C@H](Cc1ccc(O)cc1)NC(=O)[C@H](CCC(=O)O)NC(=O)[C@@H](NC(=O)[C@H](Cc1ccccc1)NC(=O)[C@H](C)NC(=O)C(C)(C)NC(=O)[C@H](CCC(N)=O)NC(=O)[C@H](C)NC(=O)[C@H](CCCCNC(=O)COCCOCCNC(=O)COCCOCCNC(=O)CC[C@H](NC(=O)CCCCCCCCCCCCCCCCCCC(=O)O)C(=O)O)NC(=O)[C@H](CCCCN)NC(=O)[C@H](CC(=O)O)NC(=O)[C@H](CC(C)C)NC(=O)[C@](C)(CC(C)C)NC(=O)[C@@H](NC(=O)[C@H](CO)NC(=O)[C@H](Cc1ccc(O)cc1)NC(=O)[C@H](CC(=O)O)NC(=O)[C@H](CO)NC(=O)[C@@H](NC(=O)[C@H](Cc1ccccc1)NC(=O)[C@@H](NC(=O)CNC(=O)[C@H](CCC(=O)O)NC(=O)C(C)(C)NC(=O)[C@@H](N)Cc1ccc(O)cc1)[C@@H](C)O)[C@@H](C)O)[C@@H](C)CC)[C@@H](C)CC)C(=O)N[C@@H](C)C(=O)NCC(=O)NCC(=O)N1CCC[C@H]1C(=O)N[C@@H](CO)C(=O)N[C@@H](CO)C(=O)NCC(=O)N[C@@H](C)C(=O)N1CCC[C@H]1C(=O)N1CCC[C@H]1C(=O)N1CCC[C@H]1C(=O)N[C@@H](CO)C(N)=O` [Example 324] (H-Y[Aib]EGTFTSDYSI[αMeL]LDKK([AEEA-AEEA-γGlu-C20 diacid])AQ[Aib]AFIEYLIAGGPSSGAPPPS-NH2), the EC50 in experiment [1] came to 0.0374 nM; in experiment [3], 0.0926 nM; at human GLP-1R [4], 0.475 nM. Besides, the Ki on human GLP-1R [2] worked out at 0.609 nM; at human GIP receptor, 0.0278 nM; on human Gcg receptor it was 449 nM.
For the compound `CC[C@H](C)[C@H](NC(=O)[C@H](CC(C)C)NC(=O)[C@H](Cc1ccc(O)cc1)NC(=O)[C@H](CCC(=O)O)NC(=O)[C@@H](NC(=O)[C@H](Cc1ccccc1)NC(=O)[C@H](C)NC(=O)C(C)(C)NC(=O)[C@H](CCC(N)=O)NC(=O)[C@H](C)NC(=O)[C@H](CCCCNC(=O)COCCOCCNC(=O)COCCOCCNC(=O)CC[C@H](NC(=O)CCCCCCCCCCCCCCCCCCC(=O)O)C(=O)O)NC(=O)[C@H](CCCCN)NC(=O)[C@H](CC(=O)O)NC(=O)[C@H](CC(C)C)NC(=O)[C@H](CC(C)C)NC(=O)[C@@H](NC(=O)[C@H](CO)NC(=O)[C@H](Cc1ccc(O)cc1)NC(=O)[C@H](CC(=O)O)NC(=O)[C@H](CO)NC(=O)[C@@H](NC(=O)[C@](C)(Cc1ccccc1F)NC(=O)[C@@H](NC(=O)CNC(=O)[C@H](CCC(=O)O)NC(=O)C(C)(C)NC(=O)[C@@H](N)Cc1ccc(O)cc1)[C@@H](C)O)[C@@H](C)O)[C@@H](C)CC)[C@@H](C)CC)C(=O)N[C@@H](CCC(=O)O)C(=O)NCC(=O)NCC(=O)N1CCC[C@H]1C(=O)N[C@@H](CO)C(=O)N[C@@H](CO)C(=O)NCC(=O)N[C@@H](C)C(=O)N1CCC[C@H]1C(=O)N1CCC[C@H]1C(=O)N1CCC[C@H]1C(=O)N[C@@H](CO)C(N)=O` [Example 325], the EC50 was 0.0301 nM in experiment [1], 0.0586 nM in experiment [3] and 0.414 nM on human GLP-1R [4]. Also, the results for the Ki at human GLP-1R [2], at human GIP receptor and at human Gcg receptor were 0.475 nM, 0.0209 nM and 13 nM, respectively.
As for `CC[C@H](C)[C@H](NC(=O)[C@H](CC(C)C)NC(=O)[C@H](Cc1ccc(O)cc1)NC(=O)[C@H](CCC(=O)O)NC(=O)[C@@H](NC(=O)[C@H](Cc1ccccc1)NC(=O)[C@H](C)NC(=O)C(C)(C)NC(=O)[C@H](CCC(N)=O)NC(=O)[C@H](C)NC(=O)[C@H](CCCCNC(=O)COCCOCCNC(=O)COCCOCCNC(=O)CC[C@H](NC(=O)CCCCCCCCCCCCCCCCCCC(=O)O)C(=O)O)NC(=O)[C@H](CCCCN)NC(=O)[C@H](CC(=O)O)NC(=O)[C@H](CC(C)C)NC(=O)[C@H](CC(C)C)NC(=O)[C@@H](NC(=O)[C@H](CO)NC(=O)[C@H](Cc1ccc(O)cc1)NC(=O)[C@H](CC(=O)O)NC(=O)[C@H](CO)NC(=O)[C@@H](NC(=O)[C@H](Cc1ccccc1)NC(=O)[C@@H](NC(=O)CNC(=O)[C@H](CCC(=O)O)NC(=O)C(C)(C)NC(=O)[C@@H](N)Cc1ccccc1)[C@@H](C)O)[C@@H](C)O)[C@@H](C)CC)[C@@H](C)CC)C(=O)N[C@@H](CCC(=O)O)C(=O)NCC(=O)NCC(=O)N1CCC[C@H]1C(=O)N[C@@H](CO)C(=O)N[C@@H](CO)C(=O)NCC(=O)N[C@@H](C)C(=O)N1CCC[C@H]1C(=O)N1CCC[C@H]1C(=O)N1CCC[C@H]1C(=O)N[C@@H](CO)C(N)=O` [Example 326] (H-F[Aib]EGTFTSDYSILLDKK([AEEA-AEEA-γGlu-C20 diacid])AQ[Aib]AFIEYLIEGGPSSGAPPPS-NH2), the results for the EC50 (in experiment [1]; in experiment [3]; at human GLP-1R [4]) were 0.0754 nM, 0.0369 nM and 0.663 nM, respectively. The inhibition constant Ki came to 2.92 nM at human GLP-1R [2], 0.251 nM at human GIP receptor and 207 nM at human Gcg receptor.
Consider `CC[C@H](C)[C@H](NC(=O)[C@H](CC(C)C)NC(=O)[C@H](Cc1ccc(O)cc1)NC(=O)[C@H](CCC(=O)O)NC(=O)[C@@H](NC(=O)[C@H](Cc1ccccc1)NC(=O)[C@H](C)NC(=O)C(C)(C)NC(=O)[C@H](CCC(N)=O)NC(=O)[C@H](C)NC(=O)[C@H](CCCCNC(=O)COCCOCCNC(=O)COCCOCCNC(=O)CC[C@H](NC(=O)CCCCCCCCCCCCCCCCC(=O)O)C(=O)O)NC(=O)[C@H](CCCCN)NC(=O)[C@H](CC(=O)O)NC(=O)[C@H](CC(C)C)NC(=O)[C@](C)(CC(C)C)NC(=O)[C@@H](NC(=O)[C@H](CO)NC(=O)[C@H](Cc1ccc(O)cc1)NC(=O)[C@H](CC(=O)O)NC(=O)[C@H](CO)NC(=O)[C@@H](NC(=O)[C@H](Cc1ccccc1)NC(=O)[C@@H](NC(=O)CNC(=O)[C@H](CCC(=O)O)NC(=O)C(C)(C)NC(=O)[C@@H](N)Cc1ccccc1)[C@@H](C)O)[C@@H](C)O)[C@@H](C)CC)[C@@H](C)CC)C(=O)N[C@@H](CCC(=O)O)C(=O)N[C@@H](C)C(=O)NCC(=O)N1CCC[C@H]1C(=O)N[C@@H](CO)C(=O)N[C@@H](CO)C(=O)NCC(=O)N[C@@H](C)C(=O)N1CCC[C@H]1C(=O)N1CCC[C@H]1C(=O)N1CCC[C@H]1C(=O)N[C@@H](CO)C(N)=O` [Example 328] (H-F[Aib]EGTFTSDYSI[αMeL]LDKK([AEEA-AEEA-γGlu-C18 diacid])AQ[Aib]AFIEYLIEAGPSSGAPPPS-NH2), for which the figures for the EC50 (in experiment [1]; in experiment [3]; on human GLP-1R [4]) were 0.0965 nM, 0.117 nM and 0.481 nM, respectively. Further, the Ki was 3.98 nM on human GLP-1R [2], 0.136 nM on human GIP receptor and over 1450 nM at human Gcg receptor.
